Key:
HassOR13/HassOrco [1] = molecular target: T1, HassOR13/HassOrco (Helicoverpa assulta, UniProt A0A0B4ZYC6); assay: two-electrode voltage clamp, Xenopus oocytes; type: cell-based; conditions: weak agonist; with HassOrco; holding potential −80 mV; pH 7.6
T1 construct: gene OR13; called heterodimer; with Odorant receptor coreceptor
T1 sequence (A0A0B4ZYC6 1-425): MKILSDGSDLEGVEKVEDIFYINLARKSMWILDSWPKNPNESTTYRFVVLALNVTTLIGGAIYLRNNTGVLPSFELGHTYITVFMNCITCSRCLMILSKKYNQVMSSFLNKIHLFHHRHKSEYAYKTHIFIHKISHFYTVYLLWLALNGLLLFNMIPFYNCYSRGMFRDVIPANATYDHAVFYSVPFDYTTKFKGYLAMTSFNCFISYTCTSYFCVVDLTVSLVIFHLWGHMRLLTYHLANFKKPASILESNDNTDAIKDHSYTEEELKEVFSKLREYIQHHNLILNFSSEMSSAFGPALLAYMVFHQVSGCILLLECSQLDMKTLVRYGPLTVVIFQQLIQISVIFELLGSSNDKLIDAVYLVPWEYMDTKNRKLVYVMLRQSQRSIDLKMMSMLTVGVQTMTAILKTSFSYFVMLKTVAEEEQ
T1 sequence (A7UGE1 1-473 partner): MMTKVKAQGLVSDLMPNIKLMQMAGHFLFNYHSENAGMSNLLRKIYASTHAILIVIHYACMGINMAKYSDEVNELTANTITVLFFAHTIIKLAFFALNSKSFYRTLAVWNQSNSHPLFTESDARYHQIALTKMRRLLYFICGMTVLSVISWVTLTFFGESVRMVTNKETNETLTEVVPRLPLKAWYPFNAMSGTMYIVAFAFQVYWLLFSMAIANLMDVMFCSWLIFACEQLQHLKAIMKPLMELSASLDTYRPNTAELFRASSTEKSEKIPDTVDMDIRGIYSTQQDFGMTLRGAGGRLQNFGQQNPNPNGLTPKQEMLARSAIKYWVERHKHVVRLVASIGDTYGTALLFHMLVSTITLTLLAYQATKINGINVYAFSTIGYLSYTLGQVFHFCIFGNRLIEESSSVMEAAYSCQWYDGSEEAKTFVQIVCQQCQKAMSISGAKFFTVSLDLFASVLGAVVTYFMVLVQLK

HassOR13/HassOrco [2] = molecular target: T1, HassOR13/HassOrco; assay: two-electrode voltage clamp, Xenopus oocytes; type: cell-based

Row | SMILES | current at 10^-4 M (HassOR13/HassOrco [1]) [nA] | EC50 (HassOR13/HassOrco [2]) [µM]
1 | CCCC/C=C\CCCCCCCC=O [Z9-14:Ald, (Z)-9-tetradecenal] | 31 ± 8 | 
2 | CCCCCC/C=C\CCCCCCCC=O [Z9-16:Ald, (Z)-9-hexadecenal] | 72 ± 13 | 
3 | CCCC/C=C\CCCCCCCCCC=O [Z11-16:Ald, (Z)-11-hexadecenal] |  | 68.4
